Numbers after ± are expanded uncertainties.
Tests used:
[1] = xn = mol fraction of the nth substance listed; settings: 101 kPa, Liquid, Frequency=0.001 MHz, Alternating current cell with electrodes
[2] = 101.33 kPa, Liquid, Alternating current cell with electrodes

[Cl-].[Cs+] [cesium chloride] + [Cl-].[Li+]
electrical conductivity [S/m], [1]
Settings	x1 = 0.42	x1 = 0.425
593.5 K	33.3 ± 0.7	–
598.5 K	35.5 ± 1.2	–
603 K	–	33.3 ± 0.7
603.5 K	37.9 ± 1.2	–
608 K	–	35.5 ± 1.1
610.5 K	41.1 ± 1.2	–
613 K	–	37.5 ± 1.1
613.5 K	42.4 ± 1.3	–
618 K	–	39.8 ± 1.2
623 K	–	42 ± 1.2
623.5 K	47.1 ± 1.3	–
628 K	–	44.2 ± 1.3
628.5 K	49.5 ± 1.4	–
629 K	52.4 ± 1.5	–
633 K	–	46.5 ± 1.3
633.5 K	52 ± 1.5	–
638 K	57.1 ± 1.5	48.8 ± 1.4
643 K	–	51.2 ± 1.4
643.5 K	57 ± 1.4	–
648 K	–	53.4 ± 1.4
650 K	62.1 ± 1.6	–
650.5 K	60.5 ± 1.6	–
653 K	–	55.9 ± 1.5
653.5 K	62 ± 2.1	–
658 K	66.5 ± 1.7	58.2 ± 1.5
663 K	–	60.6 ± 1.5
663.5 K	67.1 ± 1.6	–
668 K	–	63 ± 1.6
670 K	72.1 ± 1.8	–
670.5 K	70.6 ± 1.7	–
673 K	–	65.4 ± 1.6
673.5 K	72.1 ± 2.2	–
678 K	76.6 ± 1.8	67.8 ± 1.7
683 K	–	70.1 ± 1.7
683.5 K	77.2 ± 1.8	–
688 K	–	72.5 ± 1.7
690 K	82.2 ± 2	–
690.5 K	80.6 ± 1.9	–
693 K	–	74.9 ± 1.8
693.5 K	82.2 ± 2.4	–
698 K	86.9 ± 2	77.1 ± 1.8
703 K	–	79.6 ± 1.8
703.5 K	87 ± 1.9	–
708 K	–	81.7 ± 1.9
710 K	91.8 ± 2.3	–
710.5 K	90.2 ± 2.3	–
713 K	–	84 ± 1.9
718 K	97.1 ± 1.9	86.3 ± 1.9
723 K	–	88.4 ± 1.8

O=[N+]([O-])[O-].[K+] [potassium nitrate]
[2]
Settings	electrical conductivity [S/m]
618.5 K	64.7 ± 1.3
623.5 K	66.2 ± 1.3
624.6 K	66.5 ± 1.3
626.5 K	67.1 ± 1.3
627.9 K	67.5 ± 1.4
628.4 K	67.7 ± 1.4
628.5 K	67.7 ± 1.4
630.5 K	68.3 ± 1.4
631.5 K	68.5 ± 1.4
633.5 K	69.1 ± 1.4
633.6 K	69.1 ± 1.4
633.8 K	69.2 ± 1.4
636.7 K	70.1 ± 1.4
638.5 K	70.6 ± 1.4
648.5 K	73.4 ± 1.5
649.6 K	73.7 ± 1.5
653.5 K	74.9 ± 1.5
658.5 K	76.3 ± 1.5
659.6 K	76.6 ± 1.5
663.5 K	77.7 ± 1.6
665 K	78.2 ± 1.6

O=[N+]([O-])[O-].[Na+] [sodium nitrate]
[2]
Settings	electrical conductivity [S/m]
583 K	98.7 ± 2
593 K	103 ± 2.1
603 K	108 ± 2.2
613 K	112 ± 2.2
623 K	116 ± 2.3
633 K	121 ± 2.4
643 K	125 ± 2.5
